Key:
Mouse [1] = assay: concentration in plasma after dosing; settings: 3 h; dosed: 2-Hydroxy-4-methoxybenzophenone; 50 mg/kg; iv; Male; B6C3F1
Mouse [2] = assay: concentration in plasma after dosing; settings: 10 min; dosed: 2-Hydroxy-4-methoxybenzophenone; 250 mg/kg; oral; Female; B6C3F1
Mouse [3] = assay: concentration in plasma after dosing; settings: 0.25 h; dosed: 2-Hydroxy-4-methoxybenzophenone; 250 mg/kg; oral; Female; B6C3F1
Mouse [4] = assay: concentration in plasma after dosing; settings: 10 min; dosed: 2-Hydroxy-4-methoxybenzophenone; 50 mg/kg; iv; Male; B6C3F1
Mouse [5] = assay: concentration in plasma after dosing; settings: 2 h; dosed: 2-Hydroxy-4-methoxybenzophenone; 500 mg/kg; oral; Male; B6C3F1
Mouse [6] = assay: concentration in plasma after dosing; settings: 2 h; dosed: 2-Hydroxy-4-methoxybenzophenone; 500 mg/kg; oral; Male; B6C3F1; remark: listed apart in the source
Mouse [7] = assay: concentration in plasma after dosing; settings: 0.25 h; dosed: 2-Hydroxy-4-methoxybenzophenone; 50 mg/kg; iv; Female; B6C3F1
Mouse [8] = assay: concentration in plasma after dosing; settings: 10 min; dosed: 2-Hydroxy-4-methoxybenzophenone; 50 mg/kg; iv; Male; B6C3F1; remark: listed apart in the source
Rat [9] = assay: concentration in plasma after dosing; settings: 0.5 h; dosed: Nitrite; 20 mg/kg; iv; Male; F344
Rat [10] = assay: concentration in plasma after dosing; settings: dosed: Nitrite, 80 mg/kg, oral, Female, F344
Rat [11] = assay: concentration in plasma after dosing; settings: dosed: Nitrite, 80 mg/kg, oral, Female, F344; remark: listed apart in the source
Rat [12] = assay: concentration in plasma after dosing; settings: 10 min; dosed: Nitrite; 40 mg/kg; oral; Female; F344
Rat [13] = assay: concentration in plasma after dosing; settings: 2 min; dosed: Nitrite; 80 mg/kg; oral; Female; F344
Rat [14] = assay: concentration in plasma after dosing; settings: dosed: Nitrite, 80 mg/kg, oral, Female, F344; remark: listed apart in the source
Rat [15] = assay: concentration in plasma after dosing; settings: 0.5 h; dosed: Nitrite; 80 mg/kg; oral; Female; F344
Rat [16] = assay: concentration in liver after dosing; settings: 12 h; dosed: Perfluorooctanoic acid; 80 mg/kg; oral; Female; Harlan Sprague Dawley
Rat [17] = assay: concentration in brain after dosing; settings: 12 h; dosed: Perfluorooctanoic acid; 80 mg/kg; oral; Female; Harlan Sprague Dawley
Rat [18] = assay: concentration in liver after dosing; settings: 0.5 h; dosed: Fluorotelomer alcohol 8+2; 80 mg/kg; oral; Female; Harlan Sprague Dawley
Rat [19] = assay: concentration in plasma after dosing; settings: dosed: 678-39-7, 40 mg/kg, iv, Male, F344
Rat [20] = assay: concentration in liver after dosing; settings: 24 h; dosed: Perfluorooctanoic acid; 80 mg/kg; oral; Female; Harlan Sprague Dawley
Rat [21] = assay: concentration in liver after dosing; settings: 3 h; dosed: Perfluorooctanoic acid; 12 mg/kg; oral; Male; Harlan Sprague Dawley
Rat [22] = assay: concentration in brain after dosing; settings: 12 h; dosed: Perfluorooctanoic acid; 80 mg/kg; oral; Female; Harlan Sprague Dawley; remark: listed apart in the source
Rat [23] = assay: concentration in plasma after dosing; settings: dosed: Potassium Perfluorobutane Sulfonate, 20 mg/kg, oral, Male, Harlan Sprague Dawley
Rat [24] = assay: concentration in plasma after dosing; settings: dosed: Potassium Perfluorobutane Sulfonate, 4 mg/kg, oral, Male, Harlan Sprague Dawley
Rat [25] = assay: concentration in plasma after dosing; settings: dosed: Potassium Perfluorobutane Sulfonate, 4 mg/kg, iv, Male, F344
Rat [26] = assay: concentration in plasma after dosing; settings: dosed: Potassium Perfluorobutane Sulfonate, 4 mg/kg, oral, Male, Harlan Sprague Dawley; remark: listed apart in the source
Rat [27] = assay: concentration in kidney after dosing; settings: 3 h; dosed: Potassium Perfluorobutane Sulfonate; 20 mg/kg; oral; Male; Harlan Sprague Dawley
Rat [28] = assay: concentration in brain after dosing; settings: 1 h; dosed: Potassium Perfluorobutane Sulfonate; 20 mg/kg; oral; Male; Harlan Sprague Dawley
Rat [29] = assay: concentration in plasma after dosing; settings: dosed: Potassium Perfluorobutane Sulfonate, 4 mg/kg, iv, Male, F344; remark: listed apart in the source
rat [30] = assay: concentration in adipose after dosing (ugEq/g tissue); settings: dosed: benzo[a]pyrene, iv, male, Wistar

COc1ccc(C(=O)c2ccccc2)c(O)c1 [2-Hydroxy-4-methoxybenzophenone]
Settings | concentration in plasma [ng/mL]
Mouse [1] | 175
Mouse [2] | 117
Mouse [3] | 266
Mouse [4] | 11900
Mouse [5] | 90.1
Mouse [6] | 95.6
Mouse [7] | 4680
Mouse [8] | 14000

O=N[O-] [Nitrite]
Settings | concentration in plasma [ng/mL]
Rat [9] | 3700
Rat [12] | 8500
Rat [13] | 7000
Rat [15] | 69300

concentration in plasma [ng/mL]
Settings | 0.5 h | 1 h | 2 h | 4 h
Rat [10] | – | 21600 | 13000 | –
Rat [11] | 11900 | – | – | 2400
Rat [14] | – | 11200 | 12200 | –

O=C(O)C(F)(F)C(F)(F)C(F)(F)C(F)(F)C(F)(F)C(F)(F)C(F)(F)F [Perfluorooctanoic acid]
Settings | concentration in brain [ng/g] | concentration in liver [ng/g]
Rat [16] | – | 64300
Rat [17] | 1280 | –
Rat [18] | – | 470
Rat [20] | – | 7880
Rat [21] | – | 41100
Rat [22] | 1000 | –

Rat [19]
Settings | concentration in plasma [ng/mL]
0.5 h | 219000
3 h | 1660
12 h | 28000

O=S(=O)([O-])C(F)(F)C(F)(F)C(F)(F)C(F)(F)F.[K+] [Potassium Perfluorobutane Sulfonate]
Settings | concentration in plasma [ng/mL]
Rat [23], 5 min | 1130
Rat [23], 9 h | 13200
Rat [24], 0.75 h | 14200
Rat [24], 12 h | 2550
Rat [25], 0.5 h | 19100
Rat [25], 12 h | 1620
Rat [26], 0.25 h | 3580
Rat [26], 6 h | 11600
Rat [29], 3 h | 429
Rat [29], 5 min | 27500

Settings | concentration in brain [ng/g] | concentration in kidney [ng/g]
Rat [27] | – | 20700
Rat [28] | 1210 | –

c1ccc2c(c1)cc1ccc3cccc4ccc2c1c34 [benzo[a]pyrene]
concentration in adipose, rat [30]
Settings | 2 mg/kg | 6 mg/kg | 15 mg/kg
0.5 h | 2.77 | 2.29 | 8.6
0.75 h | 2.4 | 4.54 | 13.4
1 h | 3.86 | 3.99 | 9.76
1.5 h | 2.58 | 5.25 | 14.8
2 h | 3.96 | 3.37 | 17.1
3 h | 3.29 | 2.88 | 19.8
4 h | 2.96 | 2.38 | 15.4
5 h | 3.03 | 3.88 | 27.8
5 min | 1.06 | 0.37 | 1.47
6 h | 2.28 | 4.26 | 15.1
8 h | 3.13 | 4.09 | 17.4
10 min | 1.22 | 0.81 | 2.73
20 min | 1.82 | 2.04 | 5.65
24 h | 1.38 | – | 11.1
32 h | 1.46 | 1.02 | 5.85

Reference: EPA's CvTdb concentration-time database
